Laboratory results reported in the supplement of paper PMC10307832.

How the values were obtained:
Assay in all cases: relative viability (nuclei count vs DMSO), 5 days (fraction); higher = more cells survive
Selumetinib + Foretinib = compound: Cn1cnc2c(F)c(Nc3ccc(Br)cc3Cl)c(C(=O)NOCCO)cc21 [Selumetinib] + COc1cc2c(Oc3ccc(NC(=O)C4(C(=O)Nc5ccc(F)cc5)CC4)cc3F)ccnc2cc1OCCCN1CCOCC1 [Foretinib] (partner 0.25 µM)
Outline: (§1)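 Lung cancer cell lines in 1536-well plates got either a single drug or a fixed anchor-drug dose together with five library-drug doses (not always all listed) in √10 steps, by pin tool, on the day after seeding. Nuclei were counted after 5 days, and relative viability is the treated-to-vehicle ratio of nuclei counts. Values are medians of duplicate plates.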

Selumetinib + Pictilisib = compound: Cn1cnc2c(F)c(Nc3ccc(Br)cc3Cl)c(C(=O)NOCCO)cc21 [Selumetinib] + CS(=O)(=O)N1CCN(Cc2cc3nc(-c4cccc5[nH]ncc45)nc(N4CCOCC4)c3s2)CC1 [Pictilisib] (partner 1 µM)
Outline: as §1

Venetoclax + Dasatinib = compound: CC1(C)CCC(CN2CCN(c3ccc(C(=O)NS(=O)(=O)c4ccc(NCC5CCOCC5)c([N+](=O)[O-])c4)c(Oc4cnc5[nH]ccc5c4)c3)CC2)=C(c2ccc(Cl)cc2)C1 [Venetoclax] + Cc1nc(Nc2ncc(C(=O)Nc3c(C)cccc3Cl)s2)cc(N2CCN(CCO)CC2)n1 [Dasatinib] (partner 0.075 µM)
Outline: as §1

Selumetinib + Trametinib = compound: Cn1cnc2c(F)c(Nc3ccc(Br)cc3Cl)c(C(=O)NOCCO)cc21 [Selumetinib] + CC(=O)Nc1cccc(-n2c(=O)n(C3CC3)c(=O)c3c(Nc4ccc(I)cc4F)n(C)c(=O)c(C)c32)c1 [Trametinib] (partner 0.02 µM)
Outline: as §1

Row | Cell Line | relative viability (Selumetinib + Foretinib; first compound 0.02 µM) | relative viability (Selumetinib + Foretinib; first compound 0.06325 µM) | relative viability (Selumetinib + Foretinib; first compound 0.2 µM) | relative viability (Selumetinib + Foretinib; first compound 0.6325 µM) | relative viability (Selumetinib + Pictilisib; first compound 0.02 µM) | relative viability (Selumetinib + Pictilisib; first compound 0.06325 µM) | relative viability (Selumetinib + Pictilisib; first compound 0.2 µM) | relative viability (Selumetinib + Pictilisib; first compound 0.6325 µM) | relative viability (Venetoclax + Dasatinib; first compound 0.01 µM) | relative viability (Venetoclax + Dasatinib; first compound 0.03162 µM) | relative viability (Venetoclax + Dasatinib; first compound 0.1 µM) | relative viability (Venetoclax + Dasatinib; first compound 0.3162 µM) | relative viability (Venetoclax + Dasatinib; first compound 1 µM) | relative viability (Selumetinib + Trametinib; first compound 0.02 µM) | relative viability (Selumetinib + Trametinib; first compound 0.06325 µM) | relative viability (Selumetinib + Trametinib; first compound 0.2 µM) | relative viability (Selumetinib + Trametinib; first compound 0.6325 µM)
1 | NCI-H1299 | 1.23 | 1.08 | 1.09 | 0.935 | 0.673 | 0.51 | 0.389 | 0.359 |  |  |  |  |  |  |  |  | 
2 | NCI-H1563 | 0.879 | 0.955 | 0.903 | 0.824 | 0.616 | 0.587 | 0.753 | 0.638 | 0.531 | 0.516 | 0.445 | 0.442 | 0.461 |  |  |  | 
3 | HCC-827 | 0.942 | 0.983 | 0.989 | 0.86 | 0.82 | 1.23 | 0.79 | 0.904 | 0.336 | 0.368 | 0.34 | 0.33 | 0.334 | 0.528 | 0.554 | 0.541 | 0.549
4 | NCI-H1651 | 0.758 | 0.731 | 0.67 | 0.673 | 0.536 | 0.51 | 0.511 | 0.522 | 0.474 | 0.43 | 0.383 | 0.409 | 0.43 | 0.854 | 0.85 | 0.835 | 0.87
5 | HCC-366 | 0.866 | 0.865 | 0.755 | 0.645 | 0.136 | 0.0735 | 0.124 | 0.115 | 0.618 | 0.592 | 0.523 | 0.56 | 0.54 | 0.365 | 0.316 | 0.332 | 0.329
6 | EKVX | 0.724 | 0.675 | 0.517 | 0.568 | 0.395 | 0.391 | 0.317 | 0.243 | 0.576 | 0.641 | 0.437 | 0.567 | 0.47 | 0.308 | 0.325 | 0.344 | 0.32
7 | NCI-H2228 | 0.81 | 0.802 | 0.807 | 0.623 | 0.247 | 0.283 | 0.354 | 0.314 | 0.555 | 0.546 | 0.496 | 0.488 | 0.447 | 0.513 | 0.328 | 0.554 | 0.393
8 | LK-2 | 1.68 | 1.51 | 0.968 | 1.23 | 0.761 | 0.547 | 0.565 | 0.544 | 0.403 | 0.319 | 0.259 | 0.247 | 0.255 | 0.834 | 0.753 | 0.844 | 0.69
9 | NCI-H1650 | 0.992 | 0.888 | 0.842 | 0.928 | 0.53 | 0.44 | 0.524 | 0.525 | 0.362 | 0.352 | 0.29 | 0.324 | 0.305 | 0.522 | 0.458 | 0.531 | 0.577
10 | COR-L23 | 0.999 | 1.01 | 0.933 | 0.934 | 0.84 | 0.699 | 0.784 | 0.713 | 0.414 | 0.505 | 0.484 | 0.495 | 0.504 | 0.555 | 0.469 | 0.586 | 0.511
